Test results from the NIST ThermoML archive (doi:10.1016/j.fluid.2010.02.010).

Legend:
[1] = excess molar enthalpy (molar enthalpy of mixing); xn = mol fraction of the nth substance listed; settings: 101 kPa, Liquid, Flow calorimetry
[2] = activity coefficient (dimensionless); of the first substance listed, at infinite dilution; xn = mol fraction of the nth substance listed; settings: 101 kPa, Liquid, x1 = 0
[3] = 101.33 kPa, Liquid, Vibrating tube method

CCCCn1cc[n+](C)c1.O=S(=O)([O-])C(F)(F)F [1-butyl-3-methylimidazolium trifluoromethanesulfonate] + CCCCCCC
[1]
Settings	excess molar enthalpy [kJ/mol]
363.15 K, x2 = 0.02	0.0745
363.15 K, x2 = 0.0501	0.135
363.15 K, x2 = 0.1001	0.176
363.15 K, x2 = 0.1502	0.182
363.15 K, x2 = 0.2002	0.175
363.15 K, x2 = 0.3003	0.155
363.15 K, x2 = 0.4003	0.13
363.15 K, x2 = 0.5003	0.11
363.15 K, x2 = 0.6003	0.0865
363.15 K, x2 = 0.7003	0.0634
363.15 K, x2 = 0.8002	0.0413
363.15 K, x2 = 0.9001	0.0206
413.15 K, x2 = 0.0371	0.305
413.15 K, x2 = 0.1085	0.349
413.15 K, x2 = 0.143	0.348
413.15 K, x2 = 0.1766	0.337
413.15 K, x2 = 0.2094	0.324
413.15 K, x2 = 0.2729	0.298
413.15 K, x2 = 0.3335	0.274
413.15 K, x2 = 0.3915	0.256
413.15 K, x2 = 0.5002	0.211
413.15 K, x2 = 0.6002	0.171
413.15 K, x2 = 0.6925	0.134
413.15 K, x2 = 0.8183	0.083
413.15 K, x2 = 0.9311	0.0318

CCCCCCC [heptane] + CCCCCCCCn1cc[n+](C)c1.O=S(=O)([O-])C(F)(F)F
[2], dilutor technique
Settings	activity coefficient
303.16 K	9.59
313.14 K	9.42
323.14 K	9.26
333.11 K	9.06

CCCCCCCC [octane] + CCCCCCCCn1cc[n+](C)c1.O=S(=O)([O-])C(F)(F)F
[2], dilutor technique
Settings	activity coefficient
303.16 K	12.6
313.14 K	12.2
323.14 K	12
333.11 K	11.7

C=CCCCCCC [oct-1-ene] + CCCCCCCCn1cc[n+](C)c1.O=S(=O)([O-])C(F)(F)F
[2], dilutor technique
Settings	activity coefficient
303.21 K	8
313.15 K	7.86
323.14 K	7.79
333.12 K	7.66

C=CCCCC [hex-1-ene] + CCCCCCCCn1cc[n+](C)c1.O=S(=O)([O-])C(F)(F)F
[2], dilutor technique
Settings	activity coefficient
303.13 K	4.68
313.13 K	4.61
323.16 K	4.57
333.16 K	4.53

CCCCCCCCn1cc[n+](C)c1.O=S(=O)([O-])C(F)(F)F [1-octyl-3-methylimidazolium trifluoromethanesulfonate]
[3]
Settings	mass density [kg/m3]
293.15 K	1197
298.15 K	1193.2
303.15 K	1189.5
308.14 K	1185.8
313.15 K	1182.1
318.15 K	1178.4
323.14 K	1174.7
328.14 K	1171.1
333.14 K	1167.4
338.14 K	1163.7
343.15 K	1160.1
348.15 K	1156.5
353.14 K	1152.9

CCCCCCCC [octane] + CCCCn1cc[n+](C)c1.O=S(=O)([O-])C(F)(F)F
activity coefficient, [2]
Settings	303.12 K	303.15 K	313.15 K	313.36 K	323.12 K	323.15 K	333.15 K	333.21 K
Chromatography	–	71.2	–	65.5	–	60.3	55.2	–
Dilutor technique	70.3	–	65.6	–	60.1	–	–	55.7

CCCCCC [hexane] + CCCCn1cc[n+](C)c1.O=S(=O)([O-])C(F)(F)F
activity coefficient, [2]
Settings	303.16 K	303.45 K	313.15 K	313.19 K	323.14 K	323.16 K	333.15 K	333.22 K
Chromatography	–	29.8	28.4	–	26.5	–	24.8	–
Dilutor technique	29	–	–	27.7	–	25.9	–	24.5

C=CCCCCCC [oct-1-ene] + CCCCn1cc[n+](C)c1.O=S(=O)([O-])C(F)(F)F
activity coefficient, [2]
Settings	303.17 K	303.45 K	313.13 K	313.15 K	323.14 K	323.16 K	333.15 K	333.16 K
Chromatography	–	33.7	–	32	30.6	–	29.3	–
Dilutor technique	33.3	–	31.5	–	–	29.9	–	29

CCCCCCC [heptane] + CCCCCCn1cc[n+](C)c1.O=S(=O)([O-])C(F)(F)F
[2], dilutor technique
Settings	activity coefficient
303.16 K	19.2
313.18 K	18
323.16 K	17.4
333.14 K	16.6

C=CCCC [1-pentene] + CCCCn1cc[n+](C)c1.O=S(=O)([O-])C(F)(F)F
activity coefficient, [2]
Settings	303.45 K	313.15 K	323.15 K	333.15 K	333.18 K
Chromatography	10.1	9.69	9.48	9.18	–
Dilutor technique	–	9.55	9.34	–	9.06

C=CCCCCC [1-heptene] + CCCCCCn1cc[n+](C)c1.O=S(=O)([O-])C(F)(F)F
activity coefficient, [2]
Settings	303.14 K	303.16 K	313.15 K	313.17 K	323.15 K	333.14 K	333.18 K
Chromatography	11.2	–	10.8	–	10.6	10.4	–
dilutor technique	–	11	–	10.6	10.4	–	10.1
